From patent US20220324835A1 (Nurix Therapeutics, Inc., priority 2018, published 2022)
Read-outs that look alike come from different tables or passages of the source.

How the values were obtained:
Cbl-b (residues 36-427) = Cbl-b (residues 36-427) (Homo sapiens, UniProt Q13191); assay: Cbl-b binding assay (SPR, Biacore T200); details: 20° C., 1:1 binding model
How it was run: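 Steps: capture protein on NeutrAvidin surface; inject compound dilutions (8 or 10 points from 100 or 50 μM) 50 s; allow 90-180 s dissociation; regenerate 20 s with 0.3 M NaCl. Runs at 20° C in HEPES pH 7.5/100 mM NaCl/2% DMSO; 1:1 fitting.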

T-cell = assay: CD25 cell surface staining on T-cells co-stimulated with anti-CD3 and anti-CD28 antibody (Biological Example 2); assay type: cell-based, human; details: Homo sapiens, T-cell; for fold induction at 4 µM: 4 μM Cbl-b inhibitor
How it was run: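 T-cells were stimulated with anti-CD3 antibody alone or with anti-CD28 antibody, in the presence or absence of Cbl-b inhibitor. IL-2 secretion or CD25 surface staining was measured, and values expressed as fold over the uninhibited baseline […].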

Cbl-b = Cbl-b (Homo sapiens, UniProt Q13191); assay: Cbl-b activity assay (Cbl-b inhibition assay), TR-FRET of Cbl-b interaction with UbcH5B-Ub; assay type: biochemical; details: assay buffer with 100 mM NaCl, 60 nM Src kinase; read-out: Cbl-b activity IC50
How it was run: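 UbcH5B (C85K) conjugated to N-terminally Bodipy-Fluorescein-labeled ubiquitin served as the fluorescent partner. After compound preincubation, Src kinase (60 nM) with 1 mM ATP and 5 mM MgCl2 (final) was added for 1.5 h, followed by a further 1 h incubation. Some values were obtained with 50 mM NaCl and 30 nM Src.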

[1] = fold change over baseline, 0.3 μM Cbl-b inhibitor, primary human total T-cells, read-out: CD25 staining Anti-CD3/Anti-CD28 stimulation
[2] = fold change over baseline, 1 μM Cbl-b inhibitor, primary human total T-cells, read-out: CD25 staining Anti-CD3/Anti-CD28 stimulation
[3] = fold change over baseline, primary human total T-cells, read-out: CD25 staining Anti-CD3/Anti-CD28 stimulation

Cbl-b (residues 36-427), sequence (Q13191 36-427): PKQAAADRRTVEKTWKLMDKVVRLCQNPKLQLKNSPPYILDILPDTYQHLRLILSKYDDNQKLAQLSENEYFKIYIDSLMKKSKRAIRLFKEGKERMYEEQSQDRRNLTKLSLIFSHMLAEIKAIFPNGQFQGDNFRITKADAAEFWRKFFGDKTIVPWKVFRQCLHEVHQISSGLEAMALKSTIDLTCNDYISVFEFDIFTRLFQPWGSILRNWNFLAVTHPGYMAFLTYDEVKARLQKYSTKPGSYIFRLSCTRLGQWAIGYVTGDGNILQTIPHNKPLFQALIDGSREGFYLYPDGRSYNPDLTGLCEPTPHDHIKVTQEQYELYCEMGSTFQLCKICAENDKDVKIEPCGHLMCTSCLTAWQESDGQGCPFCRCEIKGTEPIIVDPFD
Cbl-b, sequence (Q13191 36-427): as above

Compound	Kd (Cbl-b (residues 36-427))	fold induction at 0.3 µM (T-cell; [1])	fold induction at 1 µM (T-cell; [2])	fold induction at 4 µM (T-cell; [3])	IC50 (Cbl-b)	fold induction at 0.3 µM (T-cell; 0.3 μM compound, primary human total T-cells, baseline = anti-CD3/anti-CD28 stimulated cells without inhibitor, read-out: CD25 staining, Anti-CD3/Anti-CD28 stimulation, fold change over baseline)	fold induction at 1 µM (T-cell; 1 μM compound, primary human total T-cells, baseline = anti-CD3/anti-CD28 stimulated cells without inhibitor, read-out: CD25 staining, Anti-CD3/Anti-CD28 stimulation, fold change over baseline)	fold induction at 0.3 µM (T-cell; 0.3 μM Cbl-b inhibitor, fold change over baseline (anti-CD3/anti-CD28 stimulated T-cells without inhibitor), read-out: CD25 staining Anti-CD3/Anti-CD28 stimulation)	fold induction at 1 µM (T-cell; 1 μM Cbl-b inhibitor, fold change over baseline (anti-CD3/anti-CD28 stimulated T-cells without inhibitor), read-out: CD25 staining Anti-CD3/Anti-CD28 stimulation)
C[C@H](Cc1nncn1C)c1cccc(NC(=O)c2cc(O[C@@H]3CC[C@@H](O)C3)ccn2)c1 (relative stereo) [Compound 205, trans-4-(3-hydroxycyclopentyloxy)-N-(3-((R)-1-(4-methyl-4H-1,2,4-triazol-3-yl)propan-2-yl)phenyl)picolinamide]	100 to 300 nM	1.01 to 1.3	1.01 to 1.3	1.31 to 1.5	< 100 nM	–	–	–	–
Cc1ccc(C(=O)Nc2cccc([C@H](C)Sc3nncn3C)c2)nc1C1CC1 [Compound 54, (S)-6-cyclopropyl-5-methyl-N-(3-(1-((4-methyl-4H-1,2,4-triazol-3-yl)thio)ethyl)phenyl)picolinamide]	100 to 300 nM	1.01 to 1.3	1.01 to 1.3	1.01 to 1.3	< 100 nM	–	–	–	–
Cc1cc(C(=O)Nc2cccc([C@H](C)Sc3nncn3C)c2)nc(C(F)(F)F)c1 [Compound 65, (S)-4-methyl-N-(3-(1-((4-methyl-4H-1,2,4-triazol-3-yl)thio)ethyl)phenyl)-6-(trifluoromethyl)picolinamide]	100 to 300 nM	1.01 to 1.3	1.01 to 1.3	1.01 to 1.3	< 100 nM	–	–	–	–
C[C@H](Sc1nncn1C)c1cccc(NC(=O)c2cc(C3CC3)cc(C(F)(F)F)n2)c1 [Compound 67, (S)-4-cyclopropyl-N-(3-(1-((4-methyl-4H-1,2,4-triazol-3-yl)thio)ethyl)phenyl)-6-(trifluoromethyl)picolinamide]	100 to 300 nM	1.01 to 1.3	1.01 to 1.3	1.01 to 1.3	< 100 nM	–	–	–	–
C[C@H](Sc1nncn1C)c1cccc(NC(=O)c2cccc(C3CC3)n2)c1 [Compound 72, (S)-6-cyclopropyl-N-(3-(1-((4-methyl-4H-1,2,4-triazol-3-yl)thio)ethyl)phenyl)picolinamide]	100 to 300 nM	1.31 to 1.5	1.51 to 1.75	1.51 to 1.75	< 100 nM	–	–	–	–
C[C@H](Sc1nncn1C)c1cccc(NC(=O)c2ccnc(C3CC3)n2)c1 [Compound 76, 2-cyclopropyl-A-[3-[(1S)-1-[(4-methyl-1,2,4-triazol-3-yl)sulfanyl]ethyl]phenyl]pyrimidine-4-carboxamide]	100 to 300 nM	1.01 to 1.3	1.01 to 1.3	1.31 to 1.5	< 100 nM	–	–	–	–
C[C@H](Sc1nncn1C)c1cccc(NC(=O)c2ccc(CO)c(C3CC3)n2)c1 [Compound 89, 6-cyclopropyl-5-(hydroxymethyl)-N-[3-[(1S)-1-[(4-methyl-1,2,4-triazol-3-yl)sulfanyl]ethyl]phenyl]pyridine-2-carboxamide]	100 to 300 nM	1.01 to 1.3	1.01 to 1.3	1.31 to 1.5	< 100 nM	–	–	–	–
C[C@H](Sc1nncn1C)c1cccc(NC(=O)c2ccc(F)c(C3CC3)n2)c1 [Compound 91, 6-Cyclopropyl-5-fluoro-N-[3-[(1S)-1-[(4-methyl-1,2,4-triazol-3-yl)sulfanyl]ethyl]phenyl]pyridine-2-carboxamide]	100 to 300 nM	< 1	< 1	1.01 to 1.3	< 100 nM	–	–	–	–
C[C@H](Sc1nncn1C)c1cccc(NC(=O)c2ccc(C#N)c(C3CC3)n2)c1 [Compound 92, 5-cyano-6-cyclopropyl-N-[3-[(1S)-1-[(4-methyl-1,2,4-triazol-3-yl)sulfanyl]ethyl]phenyl]pyridine-2-carboxamide]	100 to 300 nM	1.01 to 1.3	1.31 to 1.5	1.31 to 1.5	< 100 nM	–	–	–	–
COc1ccc(C(=O)Nc2cccc([C@H](C)Sc3nncn3C)c2)nc1C1CC1 [Compound 93, 6-cyclopropyl-5-methoxy-N-[3-[(1S)-1-[(4-methyl-1,2,4-triazol-3-yl)sulfanyl]ethyl]phenyl]pyridine-2-carboxamide]	100 to 300 nM	1.01 to 1.3	1.01 to 1.3	1.01 to 1.3	< 100 nM	–	–	–	–
C[C@H](Cc1nncn1C)c1cccc(NC(=O)c2cc(C3CC3)cc(C(F)(F)F)n2)c1 [Compound 191, (R)-4-cyclopropyl-N-(3-(1-(4-methyl-4H-1,2,4-triazol-3-yl)propan-2-yl)phenyl)-6-(trifluoromethyl)picolinamide]	< 100 nM	1.31 to 1.5	1.51 to 1.75	1.51 to 1.75	< 100 nM	–	–	–	–
C[C@H](Cc1nncn1C)c1cccc(NC(=O)c2cc(C3CC3)nc(C3CC3)n2)c1 [Compound 193, (R)-2,6-dicyclopropyl-N-(3-(1-(4-methyl-4H-1,2,4-triazol-3-yl)propan-2-yl)phenyl)pyrimidine-4-carboxamide]	< 100 nM	1.01 to 1.3	1.51 to 1.75	1.51 to 1.75	< 100 nM	–	–	–	–
Cc1cc(C(=O)Nc2cccc([C@H](C)Cc3nncn3C)c2)nc(C(F)(F)F)n1 [Compound 194, (R)-6-methyl-N-(3-(1-(4-methyl-4H-1,2,4-triazol-3-yl)propan-2-yl)phenyl)-2-(trifluoromethyl)pyrimidine-4-carboxamide]	100 to 300 nM	1.01 to 1.3	1.51 to 1.75	> 1.76	< 100 nM	–	–	–	–
C[C@H](Cc1nncn1C)c1cccc(NC(=O)c2nc3c(C(F)(F)F)cccc3[nH]2)c1 [Compound 196, N-[3-[(1R)-1-methyl-2-(4-methyl-1,2,4-triazol-3-yl)ethyl]phenyl]-4-(trifluoromethyl)-1H-benzimidazole-2-carboxamide]	100 to 300 nM	1.01 to 1.3	1.51 to 1.75	> 1.76	< 100 nM	–	–	–	–
C[C@H](Cc1nncn1C)c1cccc(NC(=O)c2ccnc(C3CC3)n2)c1 [Compound 199, (R)-2-cyclopropyl-N-(3-(1-(4-methyl-4H-1,2,4-triazol-3-yl)propan-2-yl)phenyl)pyrimidine-4-carboxamide]	100 to 300 nM	1.01 to 1.3	1.31 to 1.5	1.51 to 1.75	< 100 nM	–	–	–	–
C[C@H](c1cc2c(c(C(F)(F)F)c1)CN(c1cccc(C3(Cc4nncn4C)COC3)c1)C2=O)N1CCC(C)(F)CC1 [Example 553b, (R)-6-(1-(4-fluoro-4-methylpiperidin-1-yl)ethyl)-2-(3-(3-((4-methyl-4H-1,2,4-triazol-3-yl)methyl)oxetan-3-yl)phenyl)-4-(trifluoromethyl)isoindolin-1-one]	–	–	–	–	< 100 nM	> 1.76	> 1.76	–	–
C[C@@H]1CN(Cc2cc3c(c(C(F)(F)F)c2)CN(c2cccc(C4(Cc5nncn5C)COC4)c2)C3=O)CCO1 [Example 663b, (R)-2-(3-(3-((4-methyl-4H-1,2,4-triazol-3-yl)methyl)oxetan-3-yl)phenyl)-6-((2-methylmorpholino)methyl)-4-(trifluoromethyl)isoindolin-1-one]	–	–	–	–	< 100 nM	–	–	1.31 to 1.5	1.31 to 1.5
